From ChEMBL document CHEMBL5442741, “ASAP - In vitro kinase profile” (2024)
“And” between values parts separate entries of the source, which are not always exact repeats. Equal values may be shown once.

What was measured:
[1] = target: T1, Serine/threonine-protein kinase 17A (Homo sapiens) (UniProt Q9UEE5); assay: Enzymatic radiometric [Km ATP] KinaseProfiler LeadHunter assay, kinase: DRAK1, catalogue number: 14-668KP The assay has been performed by Eurofins Discovery.; settings: ATP concentration 10.0 uM, Test compound concentration 10.0 uM
T1 sequence (whole entry): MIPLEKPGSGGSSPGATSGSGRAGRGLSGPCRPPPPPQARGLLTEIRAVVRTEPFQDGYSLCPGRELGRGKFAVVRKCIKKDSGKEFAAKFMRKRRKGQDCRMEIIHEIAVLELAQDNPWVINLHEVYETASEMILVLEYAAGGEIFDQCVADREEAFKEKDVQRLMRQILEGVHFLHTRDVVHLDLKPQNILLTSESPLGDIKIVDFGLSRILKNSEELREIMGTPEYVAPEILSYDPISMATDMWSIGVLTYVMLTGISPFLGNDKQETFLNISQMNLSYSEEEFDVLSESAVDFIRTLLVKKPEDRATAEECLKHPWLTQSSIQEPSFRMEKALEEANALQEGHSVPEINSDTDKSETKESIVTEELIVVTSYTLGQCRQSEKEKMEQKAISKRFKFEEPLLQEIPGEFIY

[2] = target: T2, Serine/threonine-protein kinase 4 (Homo sapiens) (UniProt Q13043); assay: Enzymatic radiometric [Km ATP] KinaseProfiler LeadHunter assay, kinase: MST1, catalogue number: 14-624KP The assay has been performed by Eurofins Discovery.; settings: ATP concentration 90.0 uM, Test compound concentration 10.0 uM
T2 sequence (whole entry): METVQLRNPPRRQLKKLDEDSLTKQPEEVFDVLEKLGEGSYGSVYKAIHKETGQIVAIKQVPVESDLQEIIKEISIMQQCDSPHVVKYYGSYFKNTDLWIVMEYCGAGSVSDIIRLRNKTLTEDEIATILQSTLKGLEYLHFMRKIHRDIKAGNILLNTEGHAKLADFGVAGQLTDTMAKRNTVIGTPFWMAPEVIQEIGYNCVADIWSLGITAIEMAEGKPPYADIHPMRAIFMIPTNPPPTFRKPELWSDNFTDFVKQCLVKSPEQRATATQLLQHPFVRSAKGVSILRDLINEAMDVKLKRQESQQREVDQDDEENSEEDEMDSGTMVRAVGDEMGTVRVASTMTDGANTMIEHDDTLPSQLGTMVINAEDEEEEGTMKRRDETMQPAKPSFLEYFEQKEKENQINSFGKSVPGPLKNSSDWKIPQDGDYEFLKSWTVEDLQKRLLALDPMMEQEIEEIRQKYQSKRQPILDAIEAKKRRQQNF

[3] = target: Cyclin-dependent kinase 1/cyclin B (Homo sapiens) (UniProt P06493+P14635+Q8WWL7+O95067); assay: Enzymatic radiometric [Km ATP] KinaseProfiler LeadHunter assay, kinase: CDK1/cyclinB, catalogue number: 14-450KP The assay has been performed by Eurofins Discovery.; type: protein-complex assay; settings: ATP concentration 45.0 uM, Test compound concentration 10.0 uM
[4] = target: Serine/threonine-protein kinase pim-1 (Homo sapiens) (UniProt P11309); assay: Enzymatic radiometric [Km ATP] KinaseProfiler LeadHunter assay, kinase: Pim-1, catalogue number: 14-573KP The assay has been performed by Eurofins Discovery.; settings: ATP concentration 90.0 uM, Test compound concentration 10.0 uM
[5] = target: T3, Serine/threonine-protein kinase Nek2 (Homo sapiens) (UniProt P51955); assay: Enzymatic radiometric [Km ATP] KinaseProfiler LeadHunter assay, kinase: NEK2, catalogue number: 14-545KP The assay has been performed by Eurofins Discovery.; settings: ATP concentration 120.0 uM, Test compound concentration 10.0 uM
T3 sequence (whole entry): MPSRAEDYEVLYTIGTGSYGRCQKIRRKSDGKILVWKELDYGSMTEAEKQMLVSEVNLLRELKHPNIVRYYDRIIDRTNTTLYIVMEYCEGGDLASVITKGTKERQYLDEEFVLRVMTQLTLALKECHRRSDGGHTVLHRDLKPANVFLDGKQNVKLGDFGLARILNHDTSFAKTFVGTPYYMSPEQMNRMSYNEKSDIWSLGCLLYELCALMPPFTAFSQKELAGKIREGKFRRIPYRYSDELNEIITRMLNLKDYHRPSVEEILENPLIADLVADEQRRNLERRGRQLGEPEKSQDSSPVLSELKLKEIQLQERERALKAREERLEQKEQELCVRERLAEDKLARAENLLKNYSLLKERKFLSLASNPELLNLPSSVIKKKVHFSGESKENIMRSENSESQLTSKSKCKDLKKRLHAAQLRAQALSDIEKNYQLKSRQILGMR

[6] = target: Vascular endothelial growth factor receptor 2 (Homo sapiens) (UniProt P35968); assay: Enzymatic radiometric [Km ATP] KinaseProfiler LeadHunter assay, kinase: KDR, catalogue number: 14-630KP The assay has been performed by Eurofins Discovery.; settings: ATP concentration 90.0 uM, Test compound concentration 10.0 uM
[7] = target: Casein kinase I isoform gamma-1 (Homo sapiens) (UniProt Q9HCP0); assay: Enzymatic radiometric [Km ATP] KinaseProfiler LeadHunter assay, kinase: CK1-gamma1, catalogue number: 14-711KP The assay has been performed by Eurofins Discovery.; settings: ATP concentration 15.0 uM, Test compound concentration 10.0 uM
[8] = target: Tyrosine-protein kinase ABL1 (Homo sapiens) (UniProt P00519); assay: Enzymatic radiometric [Km ATP] KinaseProfiler LeadHunter assay, kinase: Abl, catalogue number: 14-529KP The assay has been performed by Eurofins Discovery.; settings: ATP concentration 45.0 uM, Test compound concentration 10.0 uM
[9] = target: Ribosomal protein S6 kinase beta-1 (Homo sapiens) (UniProt P23443); assay: Enzymatic radiometric [Km ATP] KinaseProfiler LeadHunter assay, kinase: p70S6K, catalogue number: 14-486KP The assay has been performed by Eurofins Discovery.; settings: ATP concentration 15.0 uM, Test compound concentration 10.0 uM
Ribosomal protein S6 kinase beta-1 (Homo sapiens), sequence (P23443 whole entry, looked up): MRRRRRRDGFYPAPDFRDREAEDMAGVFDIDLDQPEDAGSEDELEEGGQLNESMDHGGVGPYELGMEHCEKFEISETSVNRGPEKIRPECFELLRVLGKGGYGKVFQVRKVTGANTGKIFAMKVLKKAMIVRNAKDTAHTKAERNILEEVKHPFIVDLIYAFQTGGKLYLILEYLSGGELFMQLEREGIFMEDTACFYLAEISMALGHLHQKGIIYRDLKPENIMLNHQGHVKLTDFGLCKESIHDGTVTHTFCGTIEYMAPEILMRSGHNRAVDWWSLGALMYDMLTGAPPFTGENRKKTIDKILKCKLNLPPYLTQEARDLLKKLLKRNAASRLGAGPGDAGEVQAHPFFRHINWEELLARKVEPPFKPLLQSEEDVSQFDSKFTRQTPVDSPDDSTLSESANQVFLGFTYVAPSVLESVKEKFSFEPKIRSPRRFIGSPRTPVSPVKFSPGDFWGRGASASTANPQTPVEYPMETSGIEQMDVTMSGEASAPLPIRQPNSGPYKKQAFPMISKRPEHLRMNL

Tyrosine-protein kinase ABL1 (Homo sapiens), sequence (P00519 whole entry): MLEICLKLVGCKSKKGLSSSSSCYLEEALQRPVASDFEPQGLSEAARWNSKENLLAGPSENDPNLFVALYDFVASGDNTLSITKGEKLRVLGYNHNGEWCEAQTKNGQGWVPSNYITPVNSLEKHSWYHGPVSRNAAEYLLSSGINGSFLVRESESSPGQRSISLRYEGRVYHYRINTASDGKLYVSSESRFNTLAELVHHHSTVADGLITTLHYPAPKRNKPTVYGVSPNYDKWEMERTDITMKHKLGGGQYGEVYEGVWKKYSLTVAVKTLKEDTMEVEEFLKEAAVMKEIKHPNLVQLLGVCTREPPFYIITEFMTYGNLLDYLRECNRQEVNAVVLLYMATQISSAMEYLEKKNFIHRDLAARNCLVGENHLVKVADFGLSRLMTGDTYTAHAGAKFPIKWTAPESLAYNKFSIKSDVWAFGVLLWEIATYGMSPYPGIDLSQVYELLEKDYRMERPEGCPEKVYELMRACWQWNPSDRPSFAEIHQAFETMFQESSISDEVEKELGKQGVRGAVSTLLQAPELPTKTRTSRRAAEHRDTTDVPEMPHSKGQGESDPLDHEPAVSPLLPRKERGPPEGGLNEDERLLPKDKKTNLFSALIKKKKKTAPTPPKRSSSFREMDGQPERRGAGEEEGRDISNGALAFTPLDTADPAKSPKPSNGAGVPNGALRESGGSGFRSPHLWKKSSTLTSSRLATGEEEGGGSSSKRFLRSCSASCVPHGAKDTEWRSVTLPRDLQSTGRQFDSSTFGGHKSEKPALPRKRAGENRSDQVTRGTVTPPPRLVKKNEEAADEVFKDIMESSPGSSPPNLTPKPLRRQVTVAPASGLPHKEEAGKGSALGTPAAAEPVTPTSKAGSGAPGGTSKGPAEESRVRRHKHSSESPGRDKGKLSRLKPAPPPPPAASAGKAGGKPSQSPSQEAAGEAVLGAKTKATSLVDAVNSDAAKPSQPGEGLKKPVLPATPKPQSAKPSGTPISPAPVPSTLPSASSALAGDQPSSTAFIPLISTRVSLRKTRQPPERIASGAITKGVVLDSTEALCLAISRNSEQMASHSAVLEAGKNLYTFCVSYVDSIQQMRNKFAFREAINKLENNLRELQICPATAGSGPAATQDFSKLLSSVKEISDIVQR
Casein kinase I isoform gamma-1 (Homo sapiens), sequence (Q9HCP0 whole entry, looked up, canonical isoform): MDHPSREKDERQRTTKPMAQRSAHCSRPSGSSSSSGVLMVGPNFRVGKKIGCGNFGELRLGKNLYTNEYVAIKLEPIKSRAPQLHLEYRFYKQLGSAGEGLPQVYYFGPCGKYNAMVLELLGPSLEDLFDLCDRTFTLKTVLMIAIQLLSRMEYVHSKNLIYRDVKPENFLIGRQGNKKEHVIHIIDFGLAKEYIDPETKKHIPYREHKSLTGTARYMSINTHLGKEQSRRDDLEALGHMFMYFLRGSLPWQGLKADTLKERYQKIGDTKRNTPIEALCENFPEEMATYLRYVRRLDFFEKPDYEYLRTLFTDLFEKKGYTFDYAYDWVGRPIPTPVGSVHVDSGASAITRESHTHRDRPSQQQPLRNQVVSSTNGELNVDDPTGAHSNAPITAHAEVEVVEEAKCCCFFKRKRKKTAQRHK
Vascular endothelial growth factor receptor 2 (Homo sapiens), sequence (P35968 whole entry, canonical isoform): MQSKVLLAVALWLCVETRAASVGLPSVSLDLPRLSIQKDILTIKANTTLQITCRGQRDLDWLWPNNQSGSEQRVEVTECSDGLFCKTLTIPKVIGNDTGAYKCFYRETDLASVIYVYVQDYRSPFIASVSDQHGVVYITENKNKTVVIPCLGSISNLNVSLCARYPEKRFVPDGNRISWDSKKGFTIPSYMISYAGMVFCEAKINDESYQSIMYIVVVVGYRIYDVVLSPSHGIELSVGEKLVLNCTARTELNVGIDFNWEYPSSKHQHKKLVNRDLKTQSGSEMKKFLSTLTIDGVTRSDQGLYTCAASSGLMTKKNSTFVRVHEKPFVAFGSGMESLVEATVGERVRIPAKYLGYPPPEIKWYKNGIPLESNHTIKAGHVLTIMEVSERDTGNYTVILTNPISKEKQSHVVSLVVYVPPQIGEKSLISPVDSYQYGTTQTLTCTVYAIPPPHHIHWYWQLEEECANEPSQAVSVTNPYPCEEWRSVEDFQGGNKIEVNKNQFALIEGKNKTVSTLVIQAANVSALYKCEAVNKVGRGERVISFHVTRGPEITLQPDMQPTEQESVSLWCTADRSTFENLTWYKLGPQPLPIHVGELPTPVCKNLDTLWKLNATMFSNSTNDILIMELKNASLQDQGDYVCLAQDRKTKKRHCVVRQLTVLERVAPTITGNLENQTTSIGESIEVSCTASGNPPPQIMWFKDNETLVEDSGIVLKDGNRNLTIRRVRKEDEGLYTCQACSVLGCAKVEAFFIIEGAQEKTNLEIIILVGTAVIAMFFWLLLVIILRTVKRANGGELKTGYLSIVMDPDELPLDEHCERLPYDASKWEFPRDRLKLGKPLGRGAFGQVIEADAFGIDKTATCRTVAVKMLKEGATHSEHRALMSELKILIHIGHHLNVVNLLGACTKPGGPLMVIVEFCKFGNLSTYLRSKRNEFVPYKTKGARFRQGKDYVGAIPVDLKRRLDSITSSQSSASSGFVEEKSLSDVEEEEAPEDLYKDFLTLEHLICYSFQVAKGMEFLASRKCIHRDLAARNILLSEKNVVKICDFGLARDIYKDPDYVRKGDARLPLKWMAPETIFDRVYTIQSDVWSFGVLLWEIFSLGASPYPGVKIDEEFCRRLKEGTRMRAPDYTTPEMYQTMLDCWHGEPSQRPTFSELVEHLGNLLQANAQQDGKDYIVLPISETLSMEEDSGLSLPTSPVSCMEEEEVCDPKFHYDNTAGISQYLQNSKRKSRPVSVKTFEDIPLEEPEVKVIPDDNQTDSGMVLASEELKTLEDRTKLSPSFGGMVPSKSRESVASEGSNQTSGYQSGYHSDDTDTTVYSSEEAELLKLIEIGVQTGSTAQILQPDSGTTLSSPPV
Serine/threonine-protein kinase pim-1 (Homo sapiens), sequence (P11309 whole entry, looked up): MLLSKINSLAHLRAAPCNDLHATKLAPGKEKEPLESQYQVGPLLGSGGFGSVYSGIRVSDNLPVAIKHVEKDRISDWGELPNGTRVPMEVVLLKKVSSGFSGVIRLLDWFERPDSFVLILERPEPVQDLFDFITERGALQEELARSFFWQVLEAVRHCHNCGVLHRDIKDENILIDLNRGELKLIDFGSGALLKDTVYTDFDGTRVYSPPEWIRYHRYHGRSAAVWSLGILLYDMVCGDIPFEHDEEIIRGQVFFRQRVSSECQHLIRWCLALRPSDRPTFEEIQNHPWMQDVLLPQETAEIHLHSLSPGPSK

| SMILES | Activity [1] | Activity [2] | Activity [3] | Activity [4] | Activity [5] | Activity [6] | Activity [7] | Activity [8] | Activity [9] |
| --- | --- | --- | --- | --- | --- | --- | --- | --- | --- |
| CNC(=O)Cn1cc(-c2cc3c(N[C@@H](c4ccc5c(c4)S(=O)(=O)CCC5)C(C)C)ncnc3[nH]2)cn1 | 111% | 112% | 88% | 97% | 114% | 91% | 97% | 72% | 100% |
| CC(C)[C@@H](Nc1ncnc2[nH]ccc12)c1ccc2c(c1)S(=O)(=O)CCC2 | 96% | 88% | 129% | 80% | 118% | 82% | 102% | 93% | 98% |
| Cc1nn(C)cc1-c1cc2c(N[C@H](c3ccc4c(c3)S(=O)(=O)CCC4)C(C)C)ncnc2[nH]1 | 111% | 115% | 91% | 95% | 98% | 88% | 99% | 76% | 108% |
| Cn1ncc(-c2cc3c(N[C@@H](c4ccc5c(n4)OCCO5)C(C)(C)C)ncnc3[nH]2)c1C#N | 108% | 115% | 97% | 107% | 104% | 83% | 94% | 81% | 108% |
| CC(C)[C@H](Nc1ncnc2[nH]c(-c3cnn(C)c3C#N)cc12)c1ccc2c(n1)OCCO2 | 105% | 120% | 89% | 98% | 105% | 76% | 100% | 57% | 125% |
| CNCc1cc(-c2cc3c(N[C@@H](c4ccc5c(c4)S(=O)(=O)CCC5)C(C)C)ncnc3[nH]2)co1 | 86% | 108% | 97% | 93% | 105% | 88% | 99% | 51% | 110% |
| COc1ccc([C@H](Cc2nnn[nH]2)NC(=O)c2ncnc3[nH]ccc23)cc1 | 111% | 127% | 98% | 99% | 106% | 97% | 94% | 102% | 113% |
| COc1ccc([C@@H](Cc2nnn[nH]2)NC(=O)c2ncnc3[nH]ccc23)cc1 | 111% | 98% | 108% | 91% | 100% | 79% | 95% | 98% | 81% |
| CC(C)[C@H](Nc1ncnc2[nH]ccc12)c1ccc2c(c1)S(=O)(=O)CCC2 | 117% | 126% | 93% | 91% | 109% | 86% | 97% | 105% | 103% |
| CC(C)[C@@H](Nc1ncnc2[nH]c(-c3cnn(C)c3C#N)cc12)c1ccc2c(n1)OCCO2 | 101% and 108% | 103% and 121% | 95% and 88% | 79% and 99% | 94% and 76% | 80% and 86% | 87% and 99% | 52% and 57% | 82% and 106% |
| C[C@H](C(=O)O)[C@@H](NC(=O)c1ncnc2[nH]ccc12)c1ccc(Br)cc1 | 98% | 121% | 92% | 95% | 101% | 77% | 92% | 97% | 97% |
| CC(C)[C@@H](Nc1ncnc2[nH]c(C(=O)N[C@@H]3CCN(C)C3)cc12)c1ccc2c(c1)S(=O)(=O)CCC2 | 105% | 122% | 103% | 97% | 118% | 96% | 100% | 100% | 104% |
